Source: PubChem BioAssay AID248 (DTP/NCI, 2004)
Where “and” joins values, the source holds several entries; their conditions need not be identical. Equal values may be shown once. Inconclusive results and toxic doses are left out. Rule as the data show it: active = T/C of 150% or more; inactive = T/C below 125%.

Tested on: L1210 leukemia ip in BDF1 mice, survival T/C
Assay: NCI In Vivo Anticancer Drug Screen. Data for tumor model L1210 Leukemia (intraperitoneal) in B6D2F1 (BDF1) mice
Conditions: endpoint: mean survival time, higher = longer survival
Method in brief: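 Ratio derived from survival: compound-dosed mice over vehicle-dosed mice, all bearing a transplantable tumor.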

[1] = dose: 100.0 mg/kg/injection, schedule: Q01DX001 (ip), vehicle: carboxymethylcellulose (CMC)
[2] = dose: 200.0 mg/kg/injection, schedule: Q01DX001 (ip), vehicle: carboxymethylcellulose (CMC)
[3] = dose: 400.0 mg/kg/injection, schedule: Q01DX001 (ip), vehicle: carboxymethylcellulose (CMC)
[4] = dose: 100.0 mg/kg/injection, schedule: Q04DX003 (ip), vehicle: saline with Tween-80
[5] = dose: 200.0 mg/kg/injection, schedule: Q04DX003 (ip), vehicle: saline with Tween-80
[6] = dose: 400.0 mg/kg/injection, schedule: Q04DX003 (ip), vehicle: saline with Tween-80
[7] = dose: 100.0 mg/kg/injection, schedule: Q04DX002 (ip), vehicle: Klucel (hydroxypropylcellulose) (HPC)
[8] = dose: 200.0 mg/kg/injection, schedule: Q04DX002 (ip), vehicle: Klucel (hydroxypropylcellulose) (HPC)
[9] = dose: 400.0 mg/kg/injection, schedule: Q04DX002 (ip), vehicle: Klucel (hydroxypropylcellulose) (HPC)
[10] = dose: 100.0 mg/kg/injection, schedule: Q01DX009 (ip), vehicle: saline with Tween-80
[11] = dose: 200.0 mg/kg/injection, schedule: Q01DX009 (ip), vehicle: saline with Tween-80
[12] = dose: 400.0 mg/kg/injection, schedule: Q01DX009 (ip), vehicle: saline with Tween-80
[13] = dose: 100.0 mg/kg/injection, schedule: Q01DX009 (ip), vehicle: Klucel (hydroxypropylcellulose) (HPC)
[14] = dose: 100.0 mg/kg/injection, schedule: Q04DX003 (ip), vehicle: Klucel (hydroxypropylcellulose) (HPC)
[15] = dose: 200.0 mg/kg/injection, schedule: Q01DX009 (ip), vehicle: Klucel (hydroxypropylcellulose) (HPC)
[16] = dose: 200.0 mg/kg/injection, schedule: Q04DX003 (ip), vehicle: Klucel (hydroxypropylcellulose) (HPC)
[17] = dose: 400.0 mg/kg/injection, schedule: Q01DX009 (ip), vehicle: Klucel (hydroxypropylcellulose) (HPC)
[18] = dose: 400.0 mg/kg/injection, schedule: Q04DX003 (ip), vehicle: Klucel (hydroxypropylcellulose) (HPC)
[19] = dose: 50.0 mg/kg/injection, schedule: Q01DX001 (ip), vehicle: saline
[20] = dose: 100.0 mg/kg/injection, schedule: Q01DX001 (ip), vehicle: saline
[21] = dose: 200.0 mg/kg/injection, schedule: Q01DX001 (ip), vehicle: saline
[22] = dose: 400.0 mg/kg/injection, schedule: Q01DX001 (ip), vehicle: saline
[23] = dose: 100.0 mg/kg/injection, schedule: Q04DX003 (ip), vehicle: saline
[24] = dose: 200.0 mg/kg/injection, schedule: Q04DX003 (ip), vehicle: saline
[25] = dose: 400.0 mg/kg/injection, schedule: Q04DX003 (ip), vehicle: saline
[26] = dose: 100.0 mg/kg/injection, schedule: Q01DX001 (ip), vehicle: Klucel (hydroxypropylcellulose) (HPC)
[27] = dose: 200.0 mg/kg/injection, schedule: Q01DX001 (ip), vehicle: Klucel (hydroxypropylcellulose) (HPC)
[28] = dose: 400.0 mg/kg/injection, schedule: Q01DX001 (ip), vehicle: Klucel (hydroxypropylcellulose) (HPC)

Measured: T/C

NC1=NC(=O)NC1(c1ccccc1)c1ccccc1
inactive: dose: 50.0 mg/kg/injection, schedule: Q01DX001 (ip), vehicle: carboxymethylcellulose (CMC) 94 % of control | [1] 100 % of control | [2] 89 % of control | [3] 116 % of control

Cc1ccc(NCc2nc(N)nc(Nc3ccc(C)cc3)n2)cc1
inactive: [4] 93 % of control | [5] 101 % of control | [6] 97 % of control

O=C(O)C1C2C=CC(C2)C1C(=O)Nc1ccccc1 (centres undefined)
inactive: [4] 106 % of control | [5] 96 % of control | [6] 101 % of control

Cc1ccc(S(=O)(=O)C(CC(=O)O)c2ccccc2)cc1 (centres undefined)
inactive: [1] 88 % of control | [2] 93 % of control | [3] 98 % of control

O=[N+]([O-])c1ncn(C2CCCCO2)c1Br (centres undefined)
inactive: dose: 50.0 mg/kg/injection, schedule: Q04DX003 (ip), vehicle: gum acacia 99 % of control | dose: 100.0 mg/kg/injection, schedule: Q04DX003 (ip), vehicle: gum acacia 100 % of control | dose: 200.0 mg/kg/injection, schedule: Q04DX003 (ip), vehicle: gum acacia 100 % of control

O=[N+]([O-])c1ccc2c(c1)-c1ccccc1C2Br (centres undefined)
inactive: dose: 100.0 mg/kg/injection, schedule: Q01DX005 (ip), vehicle: Klucel (hydroxypropylcellulose) (HPC) 88 % of control | [7] 117 % of control | [8] 101 % of control | dose: 400.0 mg/kg/injection, schedule: Q01DX005 (ip), vehicle: Klucel (hydroxypropylcellulose) (HPC) 102 % of control | [9] 90 % of control

O=C(CCc1ccc(O)cc1)N/N=C/c1cc(Br)ccc1O
inactive: [10] 97 % of control | [4] 95 % of control | [11] 92 % of control | [5] 96 % of control | [12] 92 % of control | [6] 90 % of control

CC(C)C(CN)(CCCCN1CCCC1)c1cccc2ccccc12 (centres undefined)
inactive: dose: 12.5 mg/kg/injection, schedule: Q04DX003 (ip), vehicle: saline 96 % of control | dose: 25.0 mg/kg/injection, schedule: Q04DX003 (ip), vehicle: saline 93 % of control | dose: 50.0 mg/kg/injection, schedule: Q04DX003 (ip), vehicle: saline 96 % of control

O=C(COc1cc(Cl)cc(Cl)c1)NCc1ccc(Cl)cc1
inactive: [13] 91 % of control | [14] 95 % of control | [15] 88 % of control | [16] 95 % of control | [17] 95 % of control | [18] 88 % of control

CN(C)c1ncnc2c1ncn2C1OC(CO)C(N)C1O (centres undefined)
inactive: dose: 6.25 mg/kg/injection, schedule: Q01DX009 (ip), vehicle: saline 111 % of control | dose: 12.5 mg/kg/injection, schedule: Q01DX009 (ip), vehicle: saline 111 % of control | dose: 25.0 mg/kg/injection, schedule: Q01DX009 (ip), vehicle: saline 117 % of control | [19] 109 % of control | [20] 109 % of control | [21] 109 % of control | [22] 115 % of control

COC(=O)/C(=C\c1ccncc1)c1cccc2ccccc12
inactive: [4] 104 % of control | [5] 100 % of control | [6] 94 % of control

O=C(O)CNC(=S)SCc1ccccc1
inactive: dose: 100.0 mg/kg/injection, schedule: Q04DX002 (ip), vehicle: gum acacia 97 % of control | dose: 200.0 mg/kg/injection, schedule: Q04DX002 (ip), vehicle: gum acacia 87 % of control | dose: 400.0 mg/kg/injection, schedule: Q04DX002 (ip), vehicle: gum acacia 97 % of control

Cc1ccc(N2C(=O)C=CC2=O)cc1
inactive: dose: 100.0 mg/kg/injection, schedule: Q04DX003 (ip), vehicle: acetone 97 % of control | dose: 200.0 mg/kg/injection, schedule: Q04DX003 (ip), vehicle: acetone 92 % of control | dose: 400.0 mg/kg/injection, schedule: Q04DX003 (ip), vehicle: acetone 86 % of control

O=C(O)c1ccccc1/C=C/c1ccc([N+](=O)[O-])cc1
inactive: dose: 100.0 mg/kg/injection, schedule: Q01DX001 (ip), vehicle: saline with Tween-80 97 % of control

CCOC(=O)c1cnc(SCC)nc1N
inactive: [23] 101 % of control | [24] 98 % of control | [25] 103 % of control

O=C(OCC1CC1)c1ccc(N=Nc2ccccc2)cc1
inactive: dose: 75.0 mg/kg/injection, schedule: Q04DX002 (ip), vehicle: Klucel (hydroxypropylcellulose) (HPC) 102 % of control | dose: 150.0 mg/kg/injection, schedule: Q04DX002 (ip), vehicle: Klucel (hydroxypropylcellulose) (HPC) 108 % of control | dose: 300.0 mg/kg/injection, schedule: Q04DX002 (ip), vehicle: Klucel (hydroxypropylcellulose) (HPC) 105 % of control

C=CCCC(C)=O
inactive: dose: 100.0 mg/kg/injection, schedule: Q04DX002 (ip), vehicle: saline with Tween-80 102 % of control | dose: 200.0 mg/kg/injection, schedule: Q04DX002 (ip), vehicle: saline with Tween-80 102 % of control | dose: 400.0 mg/kg/injection, schedule: Q04DX002 (ip), vehicle: saline with Tween-80 102 % of control

CCNC(=O)CS(=O)(=O)c1ccc(N)cc1
inactive: [23] 100 % of control | [24] 108 % of control | [25] 105 % of control

O=C1c2ccccc2C(=O)c2c(Cl)ccc(O)c21
inactive: [13] 98 % of control | [14] 97 % of control | [15] 105 % of control | [16] 97 % of control | [17] 101 % of control | [18] 96 % of control

ClC1=C(Cl)C2(Cl)CCC1(Cl)C2(Cl)Cl
inactive: [23] 101 % of control | [24] 97 % of control | [25] 108 % of control

COC(OC)c1[nH]c(=S)[nH]c(=O)c1Cc1cccc2ccccc12
inactive: [26] 105 % of control | [10] 96 % of control | [4] 100 % of control | [27] 105 % of control | [11] 89 % of control | [5] 100 % of control | [28] 96 % of control | [12] 93 % of control | [6] 102 % of control

CC(C)(C)C(=O)c1ccc(-c2ccccc2)cc1
inactive: dose: 100.0 mg/kg/injection, schedule: Q04DX002 (ip), vehicle: other 91 % of control | dose: 200.0 mg/kg/injection, schedule: Q04DX002 (ip), vehicle: other 94 % of control | dose: 400.0 mg/kg/injection, schedule: Q04DX002 (ip), vehicle: other 94 % of control

CCOC(=O)c1cc(N(CCOS(C)(=O)=O)CCOS(C)(=O)=O)ccc1[N+](=O)[O-]
inactive: [19] 103 % of control | [20] 97 % of control | [21] 97 % of control | [22] 97 % of control

N#CSCN1C(=O)C2CC=CCC2C1=O (centres undefined)
inactive: dose: 25.0 mg/kg/injection, schedule: Q04DX003 (ip), vehicle: saline with Tween-80 97 % of control

O=C(O)C(CCC(C(=O)O)c1ccccc1)c1ccccc1 (centres undefined)
inactive: dose: 75.0 mg/kg/injection, schedule: Q01DX001 (ip), vehicle: other 110 % of control | dose: 150.0 mg/kg/injection, schedule: Q01DX001 (ip), vehicle: other 116 % of control | dose: 300.0 mg/kg/injection, schedule: Q01DX001 (ip), vehicle: other 95 % of control

Cc1cccc(NC(=O)Nc2ccc(F)cc2)n1
inactive: [26] 94 % of control | [13] 98 % of control | [7] 98 % of control and 103 % of control | [14] 97 % of control | [27] 96 % of control | [15] 95 % of control | [8] 100 % of control and 102 % of control | [16] 100 % of control | [28] 86 % of control | [17] 95 % of control | [9] 105 % of control and 107 % of control | [18] 107 % of control

COc1ccc2c3c1O[C@H]1C(O)C=C[C@H]4[C@@H](C2)N(C)CC[C@]314 (some centres undefined)
inactive: [20] 95 % of control | [21] 95 % of control

CCCCCCCCCCCCNC(=O)CC(O)(CC(=O)O)C(=O)O (centres undefined)
inactive: [14] 96 % of control
